Measured values taken from PubChem BioAssay AID256 (DTP/NCI, 2004).
Inconclusive results and toxic doses are left out. Rule for the calls: active = survival T/C of 150% or more; inactive = T/C below 125% in these data.

Test system: CD2F1 mice, L1210 leukemia ip, survival T/C
Assay: NCI In Vivo Anticancer Drug Screen. Data for tumor model L1210 Leukemia (intraperitoneal) in CD2F1 (CDF1) mice
Settings: endpoint: mean survival time, higher = longer survival
Summary of the method: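 Tumor-bearing mice (transplanted tumor) were split into treated and vehicle control groups, and the measured endpoint of each treated group was divided by that of its vehicle controls.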

[1] = dose: 100.0 mg/kg/injection, schedule: Q04DX003 (ip), vehicle: saline with Tween-80
[2] = dose: 200.0 mg/kg/injection, schedule: Q04DX003 (ip), vehicle: saline with Tween-80
[3] = dose: 400.0 mg/kg/injection, schedule: Q04DX003 (ip), vehicle: saline with Tween-80

Measured: T/C

O=c1c2cccc3cccc(c32)c2c3c(nn12)CCCC3
inactive: dose: 12.5 mg/kg/injection, schedule: Q04DX002 (ip), vehicle: saline with Tween-80 102 % of control | dose: 25.0 mg/kg/injection, schedule: Q04DX002 (ip), vehicle: saline with Tween-80 98 % of control | dose: 50.0 mg/kg/injection, schedule: Q04DX002 (ip), vehicle: saline with Tween-80 94 % of control

C=CCCCCCCCCC(=O)NC(C)COC (stereo unspecified)
inactive: dose: 100.0 mg/kg/injection, schedule: Q01DX001 (ip), vehicle: saline with Tween-80 107 % of control | dose: 200.0 mg/kg/injection, schedule: Q01DX001 (ip), vehicle: saline with Tween-80 98 % of control

O=C(O)c1cc(Br)c(O)cc1O
inactive: [1] 97 % of control | [2] 97 % of control | [3] 87 % of control

O=C(O)/C=C/S(=O)(=O)O
inactive: dose: 9.5 mg/kg/injection, schedule: Q01DX001 (ip), vehicle: saline 96 % of control | dose: 19.0 mg/kg/injection, schedule: Q01DX001 (ip), vehicle: saline 98 % of control | dose: 38.0 mg/kg/injection, schedule: Q01DX001 (ip), vehicle: saline 98 % of control | dose: 75.0 mg/kg/injection, schedule: Q01DX001 (ip), vehicle: saline 100 % of control

CC(N)(CC(=O)O)C(=O)O (stereo unspecified)
inactive: dose: 100.0 mg/kg/injection, schedule: Q01DX009 (ip), vehicle: saline sonified 97 % of control | [1] 92 % of control | dose: 200.0 mg/kg/injection, schedule: Q01DX009 (ip), vehicle: saline sonified 95 % of control | [2] 97 % of control | dose: 400.0 mg/kg/injection, schedule: Q01DX009 (ip), vehicle: saline sonified 96 % of control | [3] 91 % of control

O=C1C2CC=CCC2C(=O)N1SC(Cl)(Cl)Cl (stereo unspecified)
inactive: dose: 0.78 mg/kg/injection, schedule: Q01DX009 (ip), vehicle: saline with Tween-80 97 % of control | dose: 1.56 mg/kg/injection, schedule: Q01DX009 (ip), vehicle: saline with Tween-80 97 % of control | dose: 3.12 mg/kg/injection, schedule: Q01DX009 (ip), vehicle: saline with Tween-80 97 % of control | dose: 6.25 mg/kg/injection, schedule: Q01DX009 (ip), vehicle: saline with Tween-80 93 % of control | dose: 12.5 mg/kg/injection, schedule: Q01DX009 (ip), vehicle: saline with Tween-80 101 % of control | dose: 25.0 mg/kg/injection, schedule: Q01DX009 (ip), vehicle: saline with Tween-80 89 % of control

C/C(=C\Cl)CN(C)C
inactive: dose: 50.0 mg/kg/injection, schedule: Q01DX009 (ip), vehicle: acetone 97 % of control | dose: 100.0 mg/kg/injection, schedule: Q01DX009 (ip), vehicle: acetone 103 % of control

c1ccc(N/N=C2/c3ccccc3CC23OC3c2ccccc2)cc1 (stereo unspecified)
inactive: dose: 25.0 mg/kg/injection, schedule: Q01DX009 (ip), vehicle: Klucel (hydroxypropylcellulose) (HPC) 97 % of control | dose: 50.0 mg/kg/injection, schedule: Q01DX009 (ip), vehicle: Klucel (hydroxypropylcellulose) (HPC) 97 % of control | dose: 100.0 mg/kg/injection, schedule: Q01DX009 (ip), vehicle: Klucel (hydroxypropylcellulose) (HPC) 91 % of control | dose: 200.0 mg/kg/injection, schedule: Q01DX009 (ip), vehicle: Klucel (hydroxypropylcellulose) (HPC) 97 % of control | dose: 400.0 mg/kg/injection, schedule: Q01DX009 (ip), vehicle: Klucel (hydroxypropylcellulose) (HPC) 97 % of control
